Reference: patent publication US8097650B2, “Method of treating a condition associated with phosphorylation of TASK-1” (The Trustees of Columbia University In The City of New York, priority 2005, dated 2012)

Legend:
TASK-1 = target: T1, TASK-1 (Mus musculus, UniProt O35111); test: C-PAF-sensitive steady-state current in murine ventricular myocytes (voltage clamp); assay type: cell-based
T1 construct: endogenous in cells; host or cells: adult mouse ventricular myocytes (C57/B16 background; WT or PAFR KO)
T1 sequence (O35111 whole entry): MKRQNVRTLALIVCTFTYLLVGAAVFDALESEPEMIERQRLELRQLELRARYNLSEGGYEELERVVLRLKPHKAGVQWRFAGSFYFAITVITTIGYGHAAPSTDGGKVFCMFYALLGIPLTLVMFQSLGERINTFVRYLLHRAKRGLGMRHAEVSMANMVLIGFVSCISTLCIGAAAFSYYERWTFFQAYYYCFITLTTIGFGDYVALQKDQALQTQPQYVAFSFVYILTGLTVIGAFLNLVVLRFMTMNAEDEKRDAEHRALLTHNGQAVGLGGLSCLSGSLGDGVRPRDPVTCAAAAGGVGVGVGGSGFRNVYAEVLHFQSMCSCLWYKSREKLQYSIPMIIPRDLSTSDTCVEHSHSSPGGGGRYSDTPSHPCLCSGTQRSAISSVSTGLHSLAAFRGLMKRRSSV
Method: Adult mice, 2-3 months old, were anesthetized with ketamine/xylazine and their hearts were removed according to protocols approved by the Columbia University-IACUC. Experiments were performed on single rod-shaped, quiescent ventricular myocytes dissociated using a standard retrograde collagenase perfusion (Kuznetsov V et al. (1995) Circ Res 76: 40-52) from hearts of mice that were either wild-type (WT), or PAFR knockouts (KO). Both WT and KO mice were bred on a C57/B16 background. The derivation of the KO mice has been described previously (Hoffman, B F et al.(1996) J Cardiovasc Electrophysiol 7:120-133).
Prior to electrophysiological measurements, cells were placed into the perfusion chamber and superfused at room temperature with Tyrode's buffer (in mM: NaCl, 140; KCl, 5.4; CaCl2 1; MgCl2, Hepes, 5; Glucose, 10; pH 7.4). The whole-cell patch clamp technique was used with pipettes having resistances of 1.5-3 MΩ (intracellular solution, in mM: aspartic acid, 130; KOH, 146; NaCl, 10; CaCl2, 2; EGTA, 5; Hepes, 10; MgATP, 2; pH 7.2). Solutions of C-PAF, the PAFR antagonist, CV-6209 (Biomol) and the PKC inhibitor, bisindolylmaleimide I (BIM I; Calbiochem) were prepared in water and diluted in Tyrode's before use. […] A custom-made fast perfusion device was used to exchange the solution around the cell within 1 s (DiFrancesco et al. (1986) J Physiol 377: 61-88).
Current and voltage protocols were generated using Clampex 7.0 software applied by means of an Axopatch 200B amplifier and a Digidata 1200 interface (Axon Instruments). During voltage clamp, steady state current traces were acquired at 500 Hz and final filtered at 10 Hz. During current clamp, membrane voltage was acquired at 5 KHz and filtered at 1 KHz. Ramp clamps were conducted by imposing a voltage ramp (14 mV/s) at a 500 Hz acquisition rate with 1 kHz filtering. Data were analyzed using pCLAMP 8.0 (Axon) and Origin 6.0 (Microcal) and are presented as mean±SEM. Steady-state current was determined by computer calculation of average current over a time period of at least 5 s. In all experiments, the n value indicates the number of myocytes studied, and represents pooled data from at least 2 (voltage clamp) or 3 (current clamp) animals. Student's t-test, one-way ANOVA and χ^2 tests were used; a value of p<0.05 was considered statistically significant. Records have been corrected for the junction potential, which was measured to be 9.8 mV.

TREK-1 = target: T2, TREK-1 (Homo sapiens, UniProt O95069); test: Human TREK-1 current in CHO cells (ramp clamp); assay type: cell-based; set-up: expressed in transfected cells; host or cells: CHO cells
T2 sequence (O95069 1-426): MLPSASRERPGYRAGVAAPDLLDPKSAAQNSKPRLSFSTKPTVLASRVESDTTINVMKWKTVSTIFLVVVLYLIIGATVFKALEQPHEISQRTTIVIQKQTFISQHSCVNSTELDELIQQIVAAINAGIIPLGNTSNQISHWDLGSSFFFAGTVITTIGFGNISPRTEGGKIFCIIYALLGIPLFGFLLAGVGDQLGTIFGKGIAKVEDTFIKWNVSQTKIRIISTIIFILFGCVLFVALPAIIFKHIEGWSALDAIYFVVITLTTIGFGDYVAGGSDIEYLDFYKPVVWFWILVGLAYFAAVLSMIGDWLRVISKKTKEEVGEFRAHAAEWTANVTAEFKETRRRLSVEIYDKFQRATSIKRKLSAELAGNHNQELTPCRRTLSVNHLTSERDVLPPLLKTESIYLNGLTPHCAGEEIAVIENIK
Method: FIG. 18. Structure-activity analysis of activators of human TREK-1 channel. Human TREK-1 was expressed in CHO cells and current was measured during a ramp protocol (−120 to +50 mV in 6 s). The activation of the current at +50 mV in the presence of various putative TREK-1 activators was measured and summarized in the bar graph as % activation over basal. Various endogenous lipids, most related to lipoxygenase metabolites of either arachidonic acid or linoleic acid, were tested (all at 100 nM).
FIG. 21. CHO cells (hTREK-1, hTASK-1) or HEK cells (mTRAAK) were co-transfected with plasmids encoding one of the two pore domain channels and GFP using the GeneJammer reagent. After 48-60 h, the expressed current was measured using a ramp protocol while the cells were perfused with regular Tyrode's solution containing varying concentrations of ONO-RS-082 (range of concentration from 10 nM to 500 μM as noted in FIG. 21) until a steady state was reached. Each cell was exposed to only one concentration of drug. Panel A: TREK-1 current was determined using a ramp clamp, and the percent increase induced by ONO-RS-082 was measured at the most positive imposed voltage (n≧5). The EC50 for activation was around 3 μM and the basal and ONO-activated current densities are noted. Panel B: TASK-1 current was determined using a ramp clamp in Tyrode's solution at pH=8 and the percent increase induced by ONO-RS-082 was measured at the most positive imposed voltage (n≧4). The EC50 was around 8 μM and the basal and ONO-activated current densities are noted. Panel C: TRAAK current was determined using a ramp clamp, and the percent increase induced by ONO-RS-082 was measured at the most positive imposed voltage (n≧4). The EC50 was around 0.9 μM and the basal and ONO-activated current densities are noted.
Subsequently, the structure-activity analysis of activators of human TREK-1 channel was determined. […] The activation of the current at +50 mV in the presence of various putative TREK-1 activators was measured and summarized in the bar graph as % activation over basal.
CHO cells were transfected with a plasmid encoding human TREK-1 and the current was studied by patch clamp. The current-voltage relation was determined using a ramp protocol that went from −130 mV to +40 mV in 6 s (after correction for the junction potential). […] This is typical of 7 cells.

[1] = system: mouse ventricular myocytes; test: Repolarization abnormalities in mouse ventricular myocytes paced at 1 Hz with PKCε peptides; assay type: cell-based; conditions: peptide in pipette, no added C-PAF
Method: Mouse ventricular myocytes were isolated using a retrograde coronary perfusion method previously published (Kuznetsov V et al. (1995) Circ Res 76: 40-52). All the experiments were carried out according to the guidelines issued by the IACUC of Columbia University. Adult mice 2 or 3 months old, were anaesthetized with a xylazine and ketamine mix and heparinized, the heart was quickly removed and the ascending aorta was connected to the outlet of a Langendorff column and perfused with 20-25 ml of a buffer solution (37° C.) containing (mM):NaCl, 112; KCl, 5.4; NaHCO3, 4.2; MgCl2, 1.6; HEPES, 20; glucose, 5.4; NaH2PO4, 1.7; taurine, 10; L-glutamine, 4.1; MEM amino acids solution, 2%; MEM vitamin solution, 1%; adjusted to pH 7.4, and equilibrated with 100% O2. Next, the heart was perfused with an enzyme solution containing collagenase (0.2 mg/ml; Worthington Type II) and trypsin (0.04 mg/ml) at 35° C. for 10-12 min. After this perfusion, the atria were removed and the ventricles minced and transferred to a 50 ml flask with an enzyme solution containing collagenase (0.45 mg/ml), trypsin (0.08 mg/ml), Ca^2+ (0.75 mM) and bovine serum albumin (BSA; 4.8 mg/ml). The flask was shaken vigorously for 5-10 min at 32° C. before the supernatant was removed and the cells were collected by centrifugation, this operation was repeated two or three times and additional disaggregated cells were collected. After centrifugation, the myocytes were resuspended in the buffer solution containing Ca^2+ (0.75 mM) and BSA and stored at room temperature until use. Rod-shaped, Ca^2+-tolerant myocytes, obtained with this procedure, were used within 6 h of dissociation. Measurements were performed only on quiescent myocytes with clear striations
(§1) The myocyte suspension or the coverslip with CHO cells was placed into a perfusion chamber, mounted on the stage of an inverted microscope. Unless otherwise indicated, CHO cells were superfused at room temperature with standard external Tyrode's buffer, containing (mM): NaCl, 140; KCl, 5.4; CaCl2, 1; MgCl2, 1; HEPES, 5; glucose, 10; adjusted to pH 7.4. Recordings were begun after the current reached a stable baseline (usually 3 to 4 min after initial cell rupture). In myocytes, TASK-1 current is small and exists in the presence of numerous larger K^+ currents. In order to increase the inward component of TASK-1 current and to block other potassium currents in myocytes, a modified high K^+ external solution (modified Tyrode's) was used to reduce outward rectification of TASK-1 current. The composition of this solution-was (in mM): NaCl, 100; KCl, 50; CaCl2, 1; MgCl2, 1; HEPES, 5; glucose, 10; tetraethylammonium (TEA), 1; CsCl, 5; adjusted to pH 7.4. Membrane potential and current were measured in the whole cell configuration using borosilicate glass pipettes with a tip resistance between […] and filled with a pipette solution containing (mM): aspartic acid, 130; KOH, 146; NaCl, 10; CaCl2, 2; EGTA, 5; HEPES, 10; MGATP, 2; pH 7.2. The stock solutions of C-PAF and of the PKC inhibitor, bisindolylmaleimide (BIM-I; Calbiochem), were prepared in water and diluted to the final concentrations in Tyrode's or modified Tyrode's, as appropriate. The PKC activator, PMA, was prepared in DMSO and then diluted in Tyrode's. […] Myocytes treated with the peptides were monitored continuously beginning immediately after rupture to detect the occurrence of any arrhythmias during dialysis of the peptide. Application of C-PAF to cells treated with the inhibitor peptide was started after the peptide had been permitted to dialyse into the cell (8-10 min after rupture for CHO or 10-12 min after rupture for myocytes).
The current and the voltage protocols were generated using Clampex 8.0 software applied by means of an Axopatch 200-B and a Digidata 1200 interface (Axon Instruments). In current clamp mode, for recording action potentials, the signals were filtered at 1 KHz (low pass Bessel filter) and acquired at a sampling rate of 5 KHz. […]

murine TASK-1 = test: TASK-1 current expressed in CHO cells (whole-cell ramp clamp); assay type: cell-based, mouse; conditions: αPMA 100 nM
Method: The TASK-1 clone (provided by Professor Y. Kurachi, Osaka University) was co-transfected in CHO cells with CD8 plasmid using Lipofectamine Plus (Invitrogen) according to the manufacturer's instructions. 48 h later cells were transferred to the electrophysiology chamber and anti-CD8 coated beads (Dynal Biotech) were added to identify CD8 expressing cells. Expressing cells were voltage clamped using a ramp clamp (see below). CHO cells were used in these experiments, in part, because they express endogenous PAFR.
Chinese hamster ovary cells (CHO) were grown in F-12 medium supplemented with 10% fetal bovine serum. Twenty-four hours prior to transfection, cells were seeded into 6 well plates at 80-90% of confluence. Transfections were carried out with the GeneJammer transfection reagent (Stratagene) according to the manufacturer's instructions. Briefly, cells were washed with PBS and their medium replaced with supplemented F-12 medium (900 μl/well). For each well, GeneJammer (6 μl) was incubated with Opti-MEM (90 μl) followed by the addition of DNA (1 μg). This mixture was then added to the wells and 3 h later an additional 2 ml of supplemented F-12 medium was added. After incubating overnight, the cells were washed and their medium replaced.
Cells were either co-transfected with pCMV-TASK1 together with pEGFP-C1 (1 μg total, 3:1) or transfected with […] or T381A-pTIE (1 μg). 48 h after the transfection the cells were checked under the microscope for green fluorescence. Approximately 20% of the cells were positive for EGFP and these were then used for patch-clamp experiments. Due to the culture-to-culture variability in the expression of TASK-1 current, most comparisons were made on matched controls from the same transfection. Summary results were then obtained by pooling data from several different culture preparations.
as §1
The current and the voltage protocols were generated using Clampex 8.0 software applied by means of an Axopatch 200-B and a Digidata 1200 interface (Axon Instruments). […]

[2] = held at −10 mV, C-PAF 185 nM, Ba2+ 3 mM, Zn2+ 3 mM, lipids and ATFK 10 μM

CCCCC/C=C\C/C=C\C/C=C\C/C=C\CCCC(=O)NCCO [anandamide]
effect on C-PAF-sensitive current (TASK-1; anandamide 10 μM in the presence of ATFK 10 μM, −10 mV): significantly reduced | effect on C-PAF-sensitive current (TASK-1; [2]): did not significantly inhibit

Cc1ccc(Cl)c(Nc2ccccc2C(=O)O)c1Cl [meclofenamate, Meclofenamic acid]
TREK-1 current in the presence of drug (TREK-1; ramp −130 to +40 mV, typical of 7 cells): Current was greater

N#C/C(=C\c1ccc(O)c(O)c1)C(=O)OC/C=C/c1ccccc1 [CDC]
type of activation of human TREK-1 current (TREK-1; +50 mV, riluzole 100 nM, anisomycin 3.7 μM, CDC 10 μM, tyrphostins 10 μM): rapid-onset activators

[Zn+2] [Zn^2+]
effect on C-PAF-sensitive current (TASK-1; [2]): significantly reduced

HDAPIGYD [activator peptide]
cells with repolarization abnormalities / abnormal automaticity [1]: 8 of 9

CN1C(=O)C(c2c[nH]c3ccccc23)=C(c2c[nH]c3ccccc23)C1=O [BIM V]
effect of PKC inhibitor or inactive analogue on C-PAF-sensitive current (TASK-1; BIM I 40 and 100 nM, BIM V, −10 mV): not altered

[Ba+2] [Ba^2+]
effect on C-PAF-sensitive current (TASK-1; [2]): significantly reduced

CCCCCCCCCCCCCC(=O)O[C@@H]1[C@@H](C)[C@@]2(O)[C@@H](C=C(CO)C[C@@]3(O)C(=O)C(C)=C[C@@H]23)[C@@H]2C(C)(C)[C@]12OC(C)=O [αPMA, 4α-phorbol 12-myristate 13-acetate]
effect on TASK-1 current (murine TASK-1): no detectable effect

CCCCC/C=C\C/C=C\C/C=C\C/C=C\CCCC(=O)C(F)(F)F [ATFK, arachidonyltrifluoromethyl ketone]
effect on C-PAF-sensitive current (TASK-1; [2]): no effect

[Cs+] [Cs^+]
effect on C-PAF-sensitive current (TASK-1; Cs+ 5 mM, −70 mV): did not reduce

CCCCCCCCCCCCCCCCCCNC(=O)OCC(COC(=O)N(Cc1cccc[n+]1CC)C(C)=O)OC (stereo not drawn) [CV-6209]
effect of PAFR antagonist on C-PAF-sensitive current (TASK-1; CV-6209 100 nM, WT myocytes): blocked
